Square brackets hold non-standard residues; d marks the D form. Ends that are not written are not given here. Peptide text beside a SMILES is read from it. AllylGly = C=CC[C@H](N)C(=O)O; Nle = CCCC[C@H](N)C(=O)O; Abu = CC[C@H](N)C(=O)O
Legend:
HUVEC [1] = assay: HUVEC tube formation assay on Matrigel; assay type: cell-based, human; settings: for Tube formation Inhibition (100 uM): 100 uM peptide; for Activity in Tube formation: Yes/No summary
Protocol: The compounds also were tested for their ability to inhibit tube formation, a process critical in angiogenesis. Endothelial cells spontaneously form a network of tubes when plated on extracts of extracellular matrix. This in vitro assay combines aspects of adhesion and migration and it is routinely used in angiogenesis research (Oliveira-Ferrer et al., 2008). The ability to inhibit tube formation is a comprehensive assessment of the anti-angiogenic potential. The protocol was described by Arnaoutova et al. (2009) and it consists of plating HUVEC on top of basement membrane extract and after incubation at 37° C. the cells naturally rearrange themselves in a network of tubes. Thus, 50 μL/well of Matrigel (BD Biosciences, San Jose, Calif.) was plated in a cold 96 well plate and incubated at 37° C. for 30 min for polymerization. 15,000 cells/well were added to the top of the gel and incubated in complete media in the presence or absence of peptide for 19 hours. Images were captured using the CCD Sensicam mounted on a Nikon microscope (Eclipse T-100). Assays were performed in at least two independent replicates and each replicate was performed using three experimental replicates and one image of a randomly chosen field was acquired per well.

MDA-MB-231 xenograft = assay: MDA-MB-231 orthotopic breast tumor xenograft; assay type: in vivo, SCID mice; settings: for MDA-MB-231 xenograft inhibition: mice
Protocol: For primary tumor inhibition studies, 1−2×10^6 tumor cells were injected into 4-6 wk old female SCID mice. After the tumors reached a size of 100 mm^3 the animals were randomized into groups of 10 animals each. The animals were treated with vehicle, SP2012, SP2000, or SP2024. The peptides were administered subcutaneously daily. Dosing was continued for 3 or 4 weeks and tumor sizes were measured every 3 days using calipers. The tumor volume was estimated using the formula V=a^2b/2 where a and b are the smaller and larger diameters.
For the tumor xenograft assay, animals were housed and treated according to the approved animal protocol of the Institutional Care and Use Committee at Johns Hopkins Medical Institution (JHMI). Orthotopic breast tumors were initiated in SCID mice using MDA-MB-231 cells. 2×10^6 cells per 100 μL aliquot of single cell suspension were injected in the breast mannary fat pad. Tumors reached volumes of 75 mm^3 to 100 mm^3 in approximately 14-21 days. Mice were randomized and arranged in groups (8 mice per group) with similar tumor volumes (no statistical difference among averages) and treatment was commenced. Peptides were administered once per day intraperitoneally (i.p.) at doses of 10 mg/kg (subcutaneous delivery was also tested with certain peptides). Paclitaxel was administered at 5 mg/kg once a week, and to maintain the daily treatment regime PBS was administered on the non-treatment days. Tumors were measured every fourth day using calipers and the tumor volume was calculated using the formula V=ab^2/2, where a is the larger diameter and b is the smaller diameter.

HUVEC [2] = assay type: cell-based, human; settings: HUVEC; for Adhesion Inhibition (100 uM): 100 uM peptide; for Activity in Adhesion: Yes/No summary, active = inhibitory potential greater than 30%
Protocol: Similar to the migration assays, the inhibition activity of the peptide in cellular adhesion was assessed using the RT-CIM technology. In this case, 25,000 cells/well were plated in 16 wells E-plates (Roche, Basel Switzerland) in the presence or absence of the peptide. The adhesion was monitored over time (3 hours) by measuring changes in the electrical impedance, which is a direct measure of the cells adhering on the electrodes. […] Assays were performed in at least two independent replicates and each replicate was performed using two experimental duplicates.

HUVEC [3] = assay type: cell-based, human; settings: for Activity in Proliferation / inhibition of proliferation / Proliferation Inhibition (IC50 in uM): HUVEC; for Activity in Proliferation: Yes/No summary; for Proliferation Inhibition (IC50 in uM): summary tables 2-4, 6, 7
Protocol: Several assays were used to test the peptides discussed in the Examples herein. A colorimetric based proliferation assay using WST-1 (Roche, 11644807001) proliferation reagent was carried out using HUVEC cells. 2000 cells/well were plated in 96-well plates and allowed to adhere overnight. On the following day, the media was exchanged with fully supplemented media containing peptides or equivalent DMSO vehicle for the controls. Three days later the media containing the peptides was replaced with serum-free EBM-2 media containing WST-1 reagent and the plates were incubated for four hours as per the manufacturer's recommendations. Changes in color, due to the formazan dye resulted from the cleavage of the tetrazolium salt WST-1 by the mitochondrial succinate-tetrazolium reductase, were read on a Victor V fluorescence plate reader (Perkin Elmer, MA) by measuring the absorbance at 450 nm Dose response curves of percent live cells (in comparison to untreated cells but incubated in complete media with 0.2% DMSO) were created. Assays were performed in at least two independent replicates and each replicate was performed using three experimental triplicates.

HUVEC [4] = assay: HUVEC migration assay (RT-CIM); assay type: cell-based, human; settings: for Migration Inhibition (50 uM): 50 uM peptide; for Activity in Migration: Yes/No summary, active = inhibitory potential greater than 30%
Protocol: The inhibitory potential of the peptides was measured using a real time migration assay system based on electrical impedance (RT-CIM, ACEA Biosciences, CA). CIM 16 well plates (Roche, 05665817001) are composed of a top and bottom chamber separated by a microporous (8 μm) polycarbonate membrane. The membrane was coated with fibronectin (20 μg/mL), and 45,000 cells/well in serum free media with or without peptides were added to the top compartment. Media with chemoattractant (i.e., fully supplemented EBM-2) was added to the bottom compartment of the chamber and the plate was incubated at 37° C. for 20 hours. The sensors integrated on the bottom side of the membrane monitor and continuously record changes in impedance as the cells move through the membrane. The RT-CIM technology allows for easy quantification of cell migration by monitoring the cell index derived from the measured impedances. Assays were performed in at least two independent replicates and each replicate was performed using two experimental duplicates.

CC[C@H](C)[C@H](NC(=O)[C@H](CC(N)=O)NC(=O)[C@H](CS)NC(=O)[C@H](Cc1ccccc1)NC(=O)[C@H](CCSC)NC(=O)[C@H](Cc1ccccc1)NC(=O)[C@@H]1CCCN1C(=O)[C@H](CCSC)NC(=O)[C@@H](NC(=O)[C@H](CO)NC(=O)[C@H](Cc1ccccc1)NC(=O)[C@H](CCCNC(=N)N)NC(=O)[C@H](CCCNC(=N)N)NC(=O)[C@@H](N)CC(C)C)[C@@H](C)O)C(=O)N[C@@H](CC(N)=O)C(=O)N[C@@H](CC(N)=O)C(=O)N[C@H](C(=O)N[C@@H](CS)C(=O)N[C@@H](CC(N)=O)C(=O)N[C@@H](Cc1ccccc1)C(N)=O)C(C)C [SP2000, reference compound] (H-LRRFSTMPFMFCNINNVCNF-NH2; N-terminus assumed)
Tube formation Inhibition (100 uM) (HUVEC [1]): Complete
suppression of tumor growth (MDA-MB-231 xenograft; MDA-MB-231 xenograft in mice, 10 mg/kg daily): tumor growth was inhibited
microvascular density (MDA-MB-231 xenograft; after completion of the treatment at 21 days): statistically different from one another
MDA-MB-231 xenograft inhibition (MDA-MB-231 xenograft): Active
Adhesion Inhibition (100 uM) (HUVEC [2]): 95%
IC50 (HUVEC [3]): 15.5 µM
Migration Inhibition (50 uM) (HUVEC [4]): 80%

CC[C@H](NC(=O)[C@H](Cc1ccccc1)NC(=O)[C@H](CCSC)NC(=O)[C@H](Cc1ccccc1)NC(=O)[C@@H]1CCCN1C(=O)[C@H](CCSC)NC(=O)[C@@H](NC(=O)[C@@H](N)CO)[C@@H](C)O)C(=O)N[C@@H](CC(N)=O)C(=O)N[C@H](C(=O)N[C@@H](CC(N)=O)C(=O)N[C@@H](CC(N)=O)C(=O)N[C@H](C(=O)N[C@@H](CC)C(=O)N[C@@H](CC(N)=O)C(=O)N[C@@H](Cc1ccccc1)C(=O)O)C(C)C)[C@@H](C)CC [SP2011, STMPFMFAbuNINNVAbuNF-OH] (H-STMPFMF[Abu]NINNV[Abu]NF-OH; N-terminus assumed)
Tube formation Inhibition (100 uM) (HUVEC [1]): Partial
Activity in Tube formation (HUVEC [1]): No
inhibition of tube formation (FIG. 20) (HUVEC [1]; high dose, 100 nM): no activity in tube formation
MDA-MB-231 xenograft inhibition (MDA-MB-231 xenograft): Active
Adhesion Inhibition (100 uM) (HUVEC [2]): 0%
Activity in Adhesion (HUVEC [2]): Yes
IC50 (HUVEC [3]): 51.4 µM
Activity in Proliferation (HUVEC [3]): No
Migration Inhibition (50 uM) (HUVEC [4]): Inactive
Activity in Migration (HUVEC [4]): No
inhibition of migration (HUVEC [4]; concentration not given): inactive in the migration assay

C=CC[C@H](NC(=O)[C@H](Cc1ccccc1)NC(=O)[C@H](CCSC)NC(=O)[C@H](Cc1ccccc1)NC(=O)[C@@H]1CCCN1C(=O)[C@H](CCSC)NC(=O)[C@@H](NC(=O)[C@H](CO)NC(=O)[C@H](Cc1ccccc1)NC(=O)[C@H](CCCNC(=N)N)NC(=O)[C@H](CCCNC(=N)N)NC(=O)[C@@H](N)CC(C)C)[C@@H](C)O)C(=O)N[C@@H](CC(N)=O)C(=O)N[C@H](C(=O)N[C@@H](CC(N)=O)C(=O)N[C@@H](CC(N)=O)C(=O)N[C@H](C(=O)N[C@@H](CC=C)C(=O)N[C@@H](CC(N)=O)C(=O)N[C@@H](Cc1ccccc1)C(N)=O)C(C)C)[C@@H](C)CC [SP2026, LRRFSTMPFMF(AllyGly)NINNV(AllyGly)NF] (H-LRRFSTMPFMF[AllylGly]NINNV[AllylGly]NF-NH2; N-terminus assumed)
Tube formation Inhibition (100 uM) (HUVEC [1]): Complete
Activity in Tube formation (HUVEC [1]): Yes
Adhesion Inhibition (100 uM) (HUVEC [2]): 96.61%
Activity in Adhesion (HUVEC [2]): Yes
IC50 (HUVEC [3]): 8.23 µM
inhibition of proliferation (HUVEC [3]): not affected
Activity in Proliferation (HUVEC [3]): Yes
Migration Inhibition (5 uM) (HUVEC [4]; 5 uM peptide): 11.43%
Activity in Migration (HUVEC [4]): Yes

LRRFSTMP-NH2 [SP2008]
Tube formation Inhibition (100 uM) (HUVEC [1]): Inactive
Activity in Tube formation (HUVEC [1]): No
Adhesion Inhibition (100 uM) (HUVEC [2]): −0.1%
Activity in Adhesion (HUVEC [2]): No
inhibition of adhesion (HUVEC [2]; concentration not given): absence of activity
Activity in Proliferation (HUVEC [3]): No
Proliferation Inhibition (IC50 in uM) (HUVEC [3]): Inactive
Migration Inhibition (50 uM) (HUVEC [4]): Inactive
Activity in Migration (HUVEC [4]): No
inhibition of migration (HUVEC [4]; concentration not given): absence of activity

FTNINNVTN-NH2 [SP2031, FTNINNVTN]
Tube formation Inhibition (100 uM) (HUVEC [1]): Active
Activity in Tube formation (HUVEC [1]): Yes
Adhesion Inhibition (100 uM) (HUVEC [2]): 85%
Activity in Adhesion (HUVEC [2]): Yes
adhesion inhibition (FIG. 16) (HUVEC [2]; concentration not given): > 80
inhibition of proliferation (HUVEC [3]): restored activity
Activity in Proliferation (HUVEC [3]): Yes
Migration Inhibition (50 uM) (HUVEC [4]): 10.21%
Activity in Migration (HUVEC [4]): Yes
migration inhibition (HUVEC [4]; concentration not given): > 50%

CC[C@H](NC(=O)[C@H](Cc1ccccc1)NC(=O)[C@H](CCSC)NC(=O)[C@H](Cc1ccccc1)NC(=O)[C@@H]1CCCN1C(=O)[C@H](CCSC)NC(=O)[C@@H](NC(=O)[C@H](CO)NC(=O)[C@H](Cc1ccccc1)NC(=O)[C@H](CCCNC(=N)N)NC(=O)[C@H](CCCNC(=N)N)NC(=O)[C@@H](N)CC(C)C)[C@@H](C)O)C(N)=O [SP2007, LRRFSTMPFMFAbu] (H-LRRFSTMPFMF[Abu]-NH2; N-terminus assumed)
Tube formation Inhibition (100 uM) (HUVEC [1]): Inactive
Activity in Tube formation (HUVEC [1]): No
Adhesion Inhibition (100 uM) (HUVEC [2]): 11%
Activity in Adhesion (HUVEC [2]): No
inhibition of adhesion (HUVEC [2]; concentration not given): absence of activity
Activity in Proliferation (HUVEC [3]): No
Proliferation Inhibition (IC50 in uM) (HUVEC [3]): Inactive
Migration Inhibition (50 uM) (HUVEC [4]): Inactive
Activity in Migration (HUVEC [4]): No
inhibition of migration (HUVEC [4]; concentration not given): absence of activity

CCCC[C@H](NC(=O)[C@H](Cc1ccccc1)NC(=O)[C@@H]1CCCN1C(=O)[C@H](CCCC)NC(=O)[C@@H](NC(=O)[C@H](CO)NC(=O)[C@H](Cc1ccccc1)NC(=O)[C@H](CCCNC(=N)N)NC(=O)[C@H](CCCNC(=N)N)NC(=O)[C@@H](N)CC(C)C)[C@@H](C)O)C(=O)N[C@@H](Cc1ccccc1)C(=O)O [SP2014, LRRFSTNlePFNleF-OH] (H-LRRFST[Nle]PF[Nle]F-OH; N-terminus assumed)
Tube formation Inhibition (100 uM) (HUVEC [1]): Inactive
Activity in Tube formation (HUVEC [1]): No
Adhesion Inhibition (100 uM) (HUVEC [2]): 2.9%
Activity in Adhesion (HUVEC [2]): No
inhibition of adhesion (HUVEC [2]; concentration not given): absence of activity
IC50 (HUVEC [3]): > 100 µM
Activity in Proliferation (HUVEC [3]): No
Proliferation Inhibition (IC50 in uM) (HUVEC [3]): Inactive
Migration Inhibition (50 uM) (HUVEC [4]): Inactive
Activity in Migration (HUVEC [4]): No
inhibition of migration (HUVEC [4]; concentration not given): absence of activity

Source: patent US9056923B2, “Mimetic peptides derived from collagen type IV and their use for treating angiogenesis- and lymphagiogenesis-dependent diseases” (THE JOHNS HOPKINS UNIVERSITY, priority 2010, dated 2015)
